Key:
Assay type in all cases: in vivo
Galium spurium = assay: Test Example 5: herbicidal effect by foliage application, plastic box (symbol Q); details: 320 g/ha, 3 weeks after application
Outline: (§1)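 Emulsion formulation, diluted with water to the intended rate, was applied uniformly to leaves by small sprayer. Recipients were 14-day greenhouse-grown seedlings (25° C. to 30° C.). Assessment followed at 3 weeks.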

Avena fatua = assay: Test Example 4: herbicidal effect by soil treatment (symbol I)
Outline: (§2)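 Seeds were sown in sterilized diluvial soil, covered with about 1.5 cm of soil, and the soil surface was sprayed with a water-diluted emulsion of the compound at a predetermined rate. Plants grew in a greenhouse at 25° C. to 30° C.; effects were scored visually 3 weeks after application.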

Digitaria ciliaris = assay: Test Example 5: herbicidal effect by foliage application, plastic box (symbol F); details: 320 g/ha, 3 weeks after application
Outline: as §1

rapeseed = assay: Test Example 4: effect on crop by soil treatment (symbol g); details: for g: rapeseed, effect on crop grade: application herbicide amount 320 g/ha
Outline: (§3)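 Soil-treatment setup: crop and weed seeds were spot-sown into sterilized diluvial soil, then buried beneath approximately 1.5 cm of it, and the boxes were housed in a 25–30° C. greenhouse.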

wheat = assay: Test Example 4: effect on crop by soil treatment (symbol e); details: for e: wheat, effect on crop grade: application herbicide amount 320 g/ha
Outline: as §3

[1] = system: Echinochloa crus-galli var. crus-galli; assay: Test Example 3: herbicidal effect by foliage application, Wagner pot (symbol H); details: application herbicide amount 320 g/ha
Outline: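 Foliar spray of a water-diluted emulsion at a predetermined herbicide amount, applied to 14-day-old plants. Seedlings were raised in flooded alluvial soil (0.1–0.5 cm water) at 25–30 °C in a greenhouse. Injury was rated after 3 weeks against fixed criteria.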

Monochoria vaginalis = assay: Test Example 2: herbicidal activity, application during weed generation in submerged conditions (symbol C); details: Table 23; application herbicide amount 320 g/ha; grade 0-5 by criteria of Test Example 1
Outline: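 Scoring of herbicidal effect took place 3 weeks after treatment, using the criteria of the earlier test. Treatment was water-surface application of diluted emulsifiable compound at a set dose. Plants were at one- to two-leaf stage in submerged alluvial soil (4 cm depth), greenhouse 25-30° C.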

rice plant = assay: Test Example 5: effect on crop by foliage application, plastic box (symbol b); details: 320 g/ha, 3 weeks after application
Outline: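 Greenhouse test at 25° C. to 30° C. Seeds of crops and weeds were spot-sown in boxes of sterilized diluvial soil under roughly 1.5 cm soil cover, then grown for foliage treatment.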

Apera spica-venti = assay: Test Example 4: herbicidal effect by soil treatment (symbol L)
Outline: as §2

Stellaria media = assay: Test Example 4: herbicidal effect by soil treatment (symbol P)
Outline: as §2

Veronica persica = assay: Test Example 5: herbicidal effect by foliage application, plastic box (symbol R); details: 320 g/ha, 3 weeks after application
Outline: as §1

[2] = application herbicide amount 320 g/ha

Compound	Q: Galium spurium, herbicidal effect grade (Galium spurium)	I: Avena fatua, herbicidal effect grade (Avena fatua; 320 g/ha)	F: Digitaria ciliaris, herbicidal effect grade (Digitaria ciliaris)	g: rapeseed, effect grade on crop (rapeseed; 320 g/ha)	e: wheat, effect grade on crop (wheat; 320 g/ha)	herbicidal effect on H (Echinochloa crus-galli var. crus-galli), grade 0-5 [1]	Herbicidal effect grade, C: Monochoria vaginalis (Monochoria vaginalis)	b: directly sowed rice plant, effect on crop grade (rice plant)	L: Apera spica-venti, herbicidal effect grade (Apera spica-venti; 320 g/ha)	P: Stellaria media, herbicidal effect grade (Stellaria media; 320 g/ha)	R: Veronica persica, herbicidal effect grade (Veronica persica)	I: Avena fatua, herbicidal effect grade (Avena fatua; [2])	g: rapeseed, effect on crop grade (rapeseed)	e: wheat, effect on crop grade (wheat)	L: Apera spica-venti, herbicidal effect grade (Apera spica-venti; [2])	P: Stellaria media, herbicidal effect grade (Stellaria media; [2])
COC(=O)C(C(C)=O)C1CC(O)=C(c2c(C)cc(C)cc2C)C1=O (stereo not drawn) [2-003]	0 (Herbicidal ratio of 5% or lower (almost no effect))	0 (Herbicidal ratio of 5% or lower (almost no effect))	4 (Herbicidal ratio of 70% or higher and lower than 90%)	0 (Herbicidal ratio of 5% or lower (almost no effect))	0 (Herbicidal ratio of 5% or lower (almost no effect))	5 (Herbicidal ratio of 90% or more (almost completely withered))	0 (Herbicidal ratio of 5% or lower (almost no effect))	5 (Herbicidal ratio of 90% or more (almost completely withered))	5 (Herbicidal ratio of 90% or more (almost completely withered))	0 (Herbicidal ratio of 5% or lower (almost no effect))	3 (Herbicidal ratio of 40% or higher and lower than 70%)	–	–	–	–	–
Cc1cc(C)c(C2=C(O)CC(CC(=O)Cc3ccccc3)C2=O)c(C)c1 (stereo not drawn) [2-015]	0 (Herbicidal ratio of 5% or lower (almost no effect))	–	5 (Herbicidal ratio of 90% or more (almost completely withered))	–	–	1 (Herbicidal ratio of 5% or higher and lower than 20%)	0 (Herbicidal ratio of 5% or lower (almost no effect))	5 (Herbicidal ratio of 90% or more (almost completely withered))	–	–	0 (Herbicidal ratio of 5% or lower (almost no effect))	0 (Herbicidal ratio of 5% or lower (almost no effect))	0 (Herbicidal ratio of 5% or lower (almost no effect))	0 (Herbicidal ratio of 5% or lower (almost no effect))	3 (Herbicidal ratio of 40% or higher and lower than 70%)	0 (Herbicidal ratio of 5% or lower (almost no effect))
CC(=O)CC1CC(OC(=O)C(C)(C)C)=C(c2c(C)cc(C)cc2C)C1=O (stereo not drawn) [2-018]	0 (Herbicidal ratio of 5% or lower (almost no effect))	–	1 (Herbicidal ratio of 5% or higher and lower than 20%)	–	–	5 (Herbicidal ratio of 90% or more (almost completely withered))	0 (Herbicidal ratio of 5% or lower (almost no effect))	2 (Herbicidal ratio of 20% or higher and lower than 40%)	–	–	0 (Herbicidal ratio of 5% or lower (almost no effect))	0 (Herbicidal ratio of 5% or lower (almost no effect))	3 (Herbicidal ratio of 40% or higher and lower than 70%)	0 (Herbicidal ratio of 5% or lower (almost no effect))	2 (Herbicidal ratio of 20% or higher and lower than 40%)	0 (Herbicidal ratio of 5% or lower (almost no effect))

— patent publication US11000033B2, “Ketone or oxime compound, and herbicide” (NISSAN CHEMICAL CORPORATION, priority 2014, dated 2021)
